What was measured:
[1] = tested on: mice bearing LNCaP tumor xenografts; test: PET/CT imaging of 68Ga-labeled compounds; format: in vivo
In short: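 Male NOD SCID IL2Rγ KO mice bore subcutaneous LNCaP xenografts (1×10^7 cells, tumours 5-8 mm) and received 6-8 MBq tracer via tail vein under 2% isoflurane. At 50 min p.i., a 10-min CT and a 10-min static PET were acquired. For the 3 h time point, scanning began at 170 min p.i. with a 15-min static PET.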

[2] = tested on: mice bearing PSMA-expressing LNCAP cancer xenografts; test: Biodistribution of 68Ga-labeled compounds; format: in vivo
In short: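 NOD-SCID IL2RγKO male mice carried subcutaneous LNCaP xenografts grown to 5-8 mm over 5-6 weeks. Organs and blood were collected at 1 or 3 h after injection of the radiotracer and gamma-counted. Uptake was normalized to injected dose via a standard curve and expressed as %ID/g.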

change of tumor uptake from 1 h to 3 h post-injection ([1]; PET/CT images): increases over time | blood retention (qualitative) ([1]; PET/CT images at 1 h and 3 h post-injection, comparison within the figure): significantly higher blood retention | Adrenal glands uptake ([2]; 1 h post-injection): 3.99 ± 1.94 % ID/g | Blood uptake ([2]; 1 h post-injection): 16.8 ± 2.14 % ID/g | Bone uptake ([2]; 1 h post-injection): 0.71 ± 0.10 % ID/g | Brain uptake ([2]; 1 h post-injection): 0.20 ± 0.02 % ID/g | Fat uptake ([2]; 1 h post-injection): 1.87 ± 0.80 % ID/g | Heart uptake ([2]; 1 h post-injection): 3.95 ± 0.72 % ID/g | Intestine uptake ([2]; 1 h post-injection): 1.14 ± 0.13 % ID/g | Kidneys uptake ([2]; 1 h post-injection): 24.3 ± 3.03 % ID/g | Lacrimal uptake ([2]; 1 h post-injection): 0.16 ± 0.07 % ID/g | Liver uptake ([2]; 1 h post-injection): 3.37 ± 0.85 % ID/g | Lungs uptake ([2]; 1 h post-injection): 7.68 ± 1.33 % ID/g | Muscle uptake ([2]; 1 h post-injection): 1.23 ± 0.15 % ID/g | Pancreas uptake ([2]; 1 h post-injection): 1.36 ± 0.22 % ID/g | Salivary uptake ([2]; 1 h post-injection): 2.48 ± 0.36 % ID/g | Seminal uptake ([2]; 1 h post-injection): 0.90 ± 0.15 % ID/g | Spleen uptake ([2]; 1 h post-injection): 2.00 ± 0.34 % ID/g | Stomach uptake ([2]; 1 h post-injection): 0.59 ± 0.13 % ID/g | Tail uptake ([2]; 1 h post-injection): 3.77 ± 0.91 % ID/g | Testes uptake ([2]; 1 h post-injection): 1.95 ± 0.20 % ID/g | Thyroid uptake ([2]; 1 h post-injection): 3.36 ± 0.24 % ID/g | Tumor uptake ([2]; 1 h post-injection): 8.54 ± 0.74 % ID/g | Tumor:Blood ratio ([2]; 1 h post-injection): 0.52 ± 0.10 | Tumor:Muscle ratio ([2]; 1 h post-injection): 7.09 ± 1.37 | Urine uptake ([2]; 1 h post-injection): 21.5 ± 9.93 % ID/g | Adrenal glands uptake ([2]; 3 h post-injection): 2.89 ± 0.28 % ID/g | Blood uptake ([2]; 3 h post-injection): 13.6 ± 1.23 % ID/g | Bone uptake ([2]; 3 h post-injection): 0.64 ± 0.03 % ID/g | Brain uptake ([2]; 3 h post-injection): 0.16 ± 0.02 % ID/g | Fat uptake ([2]; 3 h post-injection): 1.30 ± 0.13 % ID/g | Heart uptake ([2]; 3 h post-injection): 3.00 ± 0.41 % ID/g | Intestine uptake ([2]; 3 h post-injection): 0.98 ± 0.16 % ID/g | Kidneys uptake ([2]; 3 h post-injection): 30.0 ± 8.66 % ID/g | Lacrimal uptake ([2]; 3 h post-injection): 0.10 ± 0.13 % ID/g | Liver uptake ([2]; 3 h post-injection): 2.73 ± 0.90 % ID/g | Lungs uptake ([2]; 3 h post-injection): 6.00 ± 0.88 % ID/g | Muscle uptake ([2]; 3 h post-injection): 1.04 ± 0.12 % ID/g | Pancreas uptake ([2]; 3 h post-injection): 1.27 ± 0.13 % ID/g | Salivary uptake ([2]; 3 h post-injection): 2.15 ± 0.37 % ID/g | Seminal uptake ([2]; 3 h post-injection): 0.89 ± 0.05 % ID/g | Spleen uptake ([2]; 3 h post-injection): 1.93 ± 0.55 % ID/g | Stomach uptake ([2]; 3 h post-injection): 0.63 ± 0.12 % ID/g | Tail uptake ([2]; 3 h post-injection): 3.75 ± 1.53 % ID/g | Testes uptake ([2]; 3 h post-injection): 2.08 ± 0.42 % ID/g | Thyroid uptake ([2]; 3 h post-injection): 2.76 ± 0.21 % ID/g | Tumor uptake ([2]; 3 h post-injection): 16.9 ± 3.16 % ID/g | Tumor:Blood ratio ([2]; 3 h post-injection): 1.25 ± 0.32 | Tumor:Muscle ratio ([2]; 3 h post-injection): 16.6 ± 4.11 | Urine uptake ([2]; 3 h post-injection): 53.9 ± 14.6 % ID/g
Structure (SMILES): Cc1ccc(CCCC(=O)NCC(=O)N[C@@H](CCCCNC(=O)CN2CCN(CC(=O)[O-])CCN(CC(=O)[O-])CCN(CC(=O)[O-])CC2)C(=O)NC[C@H]2CC[C@H](C(=O)N[C@@H](Cc3ccc4ccccc4c3)C(=O)NCCCC[C@H](NC(=O)N[C@@H](CCC(=O)O)C(=O)O)C(=O)O)CC2)cc1.[68Ga+3] [^68Ga-HTK03090]

— US20200339625A1, “NOVEL RADIOMETAL-BINDING COMPOUNDS FOR DIAGNOSIS OR TREATMENT OF PROSTATE SPECIFIC MEMBRANE ANTIGEN-EXPRESSING CANCER” (PROVINCIAL HEALTH SERVICES AUTHORITY, priority 2017, published 2020)
